Data taken from patent US10399949B2, “NK1 receptor antagonist” (KISSEI PHARMACEUTICAL CO., LTD., priority 2015, dated 2019).

Key:
human CYP3A4 = target: T1, human CYP3A4 (Homo sapiens, UniProt P08684); assay: Inhibitory effect on CYP3A4 (Luciferin-IPA); type: in vitro ADME; details: test compound 10 μM, 30-minutes pre-incubation, Luciferin-IPA 3 μM
T1 construct: purchased BD Biosciences
Experimental: Inhibitory Effect on CYP3A4
The dimethyl sulfoxide (DMSO) solution of the test compound with a concentration 1000 times higher than the evaluation concentration was prepared, and a reaction solution was prepared by diluting the solution. Enzyme reaction was performed by incubating in a potassium phosphate buffer solution (pH 7.4) containing 1 μM to 10 μM test compound, 3.2 mM magnesium chloride, 0.2 pmol human CYP3A4 (BD Biosciences), 0.5 mM reduced nicotinamide adenine dinucleotide phosphate (NADPH) and 3 μM Luciferin-IPA (Promega) at 37° C. for 10 minutes. The volume of the reaction solution was 50 μL/well. The 30-minutes pre-incubation group was incubated at 37° C. for 30 minutes before adding the substrate, the Luciferin-IPA solution (12.5 μL/well). At the end of the enzyme reaction, 50 μL/well of a Luciferin detection reagent (Promega) was added to the wells, and the plate was left at room temperature for 20 minutes. Then, the emission intensities were measured with Infinite M1000 (TECAN), and the enzyme activities (%) relative to the value of the group to which the test compound was not added. As a comparative example, aprepitant, which is an NK1 receptor antagonist, was tested in the same manner.
Test was measured by the above test method, and the results are shown in Table 9 when the concentration of the test compound was 10 μM. In the table, Ex. No. means the Example number, and Pre-incubation (30 min) (%) means the enzyme activities (%) of the 30-minutes pre-incubation groups using the test compounds.

human NK1 receptor [1] = target: T2, human NK1 receptor (Homo sapiens, UniProt P25103); assay: Inhibitory effect on human NK1 receptor (substance P-induced increase in intracellular calcium concentration); type: cell-based; details: HEK-293T; substance P 0.1 μM; compound 1 μM; human NK1 receptor-expressing 293T cells; vehicle = 100%; read-out: SPRR (%) (Substance P-Response Remaining, intracellular calcium concentration)
T2 construct: expressed in transfected cells; host or cells: 293T cells (RIKEN), transient transfection with pcDNA3.1(-) plasmid
Experimental: Inhibitory Effect on Human NK1 Receptor
(1) Preparation of Human NK1 Receptor-Expressing Cells
Human NK1 receptor-expressing cells were prepared by the same methods as those described in 2-3 and 2-4 of Test Example 1.
(2) Study on Inhibitory Effect on Increase in Intracellular Calcium Concentration
The human NK1 receptor-expressing cells were washed with 300 μL/well of a washing solution (20 mM HEPES/Hanks Balanced Salt Solution (HBSS) pH7.3). A fluorescent calcium indicator (Fluo-4 Direct Calcium Assay Kit, Life Technologies, containing 0.42 mM probenecid and 0.1% bovine serum albumin, prepared according to the protocol of the product) was added to the wells at 150 μL/well, and the plate was incubated at 37° C. for 30 minutes in an incubator. Then, DMSO solutions of a test compound, which were prepared at an 80-time higher concentration using 100% dimethyl sulfoxide (DMSO), were added to the wells at 2.5 μL/well (final concentrations of 0.1, 1 and 10 μM), and the solutions were mixed. Then, the plate was further incubated at 37° C. for 30 minutes in an incubator. After 30 minutes, the intracellular calcium concentrations were measured immediately.
The intracellular calcium concentrations were each measured as a fluorescent signal using FDSS® 7000 (Hamamatsu Photonics). A substance P (Peptide Institute, Inc.) solution which was prepared at 0.4 μM or 4 μM using an assay buffer (20 mM HEPES/Hanks Balanced Salt Solution (HBSS) pH 7.3 containing 0.1% bovine serum albumin) was added automatically to each well at 50 μL/well (final concentration of 0.1 or 1 μM) 10 seconds after starting reading, and the fluorescent signal was measured up to 120 seconds.
The intracellular calcium concentration (%) of the cells to which a test compound was added was calculated by the equation below, where the fluorescent signal of the group to which the vehicle (DMSO) was added was regarded as 100%, and the fluorescent signal before the addition of substance P was regarded as 0%. Intracellular calcium concentration (%)=(Fluorescent signal of test compound addition group)/(Fluorescent signal of vehicle addition group)×100
The intracellular calcium concentration (%) calculated was regarded as the remaining agonist activity of substance P (Substance P-Response Remaining: SPRR). In the table, Ex. No. means the Example number. SPRR (%) means the value obtained when the concentration of substance P was 0.1 μM and the concentration of the compound was 1 μM.

human NK1 receptor [2] = target: T2, human NK1 receptor; assay: Affinity for human NK1 receptor (125I-substance P receptor binding test, membrane fraction); details: membrane fraction of human NK1 receptor-expressing 293T cells, room temperature 60 minutes, read-out: pIC50 (inverse logarithm of the concentration required for 50% inhibition of 125I-substance P binding) (converted)
Experimental: Affinity for Human NK1 Receptor
(3) Measurement of Binding Affinity to Human NK1 Receptor
(3-1) Preparation of Membrane Fraction from Human NK1 Receptor-Expressing Cells
Human NK1 receptor-expressing cells were prepared in a 175 cm^2 culture flask (Nippon Becton Dickinson). The formation of a complex of the human NK1 receptor expression plasmid and Lipofectamine 2000 was performed by calculating the culture area ratio and increasing the scale of the method described in the above 2-4 by the ratio. The human NK1 receptor-expressing cells were collected in a buffer solution for the membrane fraction preparation (50 mM Tris (Wako Pure Chemical), 120 mM sodium chloride (Wako Pure Chemical Industries), 5 mM potassium chloride (Wako Pure Chemical Industries), 1 mM ethylenediaminetetraacetic acid (Sigma), 0.002 mg/mL chymostatin (Peptide Institute), 0.04 mg/bacitracin (Wako Pure Chemical Industries), 0.005 mg/mL phosphoramidon (Peptide Institute) and 0.5 mM phenylmethylsulfonyl fluoride (Wako Pure Chemical Industries), pH7.4) and centrifuged at 1,880 g for 10 minutes, and the cell sediment was suspended in the buffer solution for the membrane fraction preparation. After freezing and thawing the cells once, the cells were homogenized using a Dounce-type homogenizer (cooled on ice, 1000 rpm, 20 times). The homogenized cell suspension was centrifuged at 20,000 rpm for 10 minutes, and the supernatant was removed to obtain cell sediment. The cell sediment was suspended again in the buffer solution for the membrane fraction preparation and homogenized using a Dounce-type homogenizer (cooled on ice, 1000 rpm, 30 times). The cell suspension was centrifuged at 20,000 rpm for 10 minutes, and the supernatant was removed to obtain cell sediment. The same homogenization and centrifugation were repeated again, and final cell sediment was obtained. The final cell sediment was suspended in a buffer solution for the receptor binding test (50 mM Tris (Wako Pure Chemical Industries), 3 mM manganese chloride (Wako Pure Chemical Industries), 0.002 mg/mL chymostatin (Peptide Institute), 0.04 mg/bacitracin (Wako Pure Chemical Industries) and 0.02% bovine serum albumin (Sigma), pH 7.4), and the protein concentration was measured using BCA Protein Assay Kit (Pierce).
(3-2) Receptor Binding Test
The buffer solution for the receptor binding test was dispensed to the wells of a 96-well assay plate (Greiner) at 22.5 μL/well. DMSO solutions of a test compound, which were prepared at an 80-time higher concentration using 100% dimethyl sulfoxide (DMSO), were added to the wells at 2.5 μL/well (final concentrations of 1 nM to 100 nM), and the solutions were mixed. As a radiolabeled ligand, ^125I-substance P (Substance P, [^125I]Tyr^8-, PerkinElmer) was used. ^125I-substance P was diluted with the buffer solution for the receptor binding test to a concentration resulting in […] and added to the 96-well assay plate, and the solutions were mixed. The membrane fraction prepared from the human NK1 receptor-expressing cells was diluted with the buffer solution for the receptor binding test to a concentration resulting in 8 to 10 μg/well, suspended until the suspension became in such a homogenous state that the suspension could flow through a 27G injection needle smoothly and then added to the 96-well assay plate at 150 μL/well. Then, the plate was incubated at room temperature for 60 minutes while shaking the plate. […]

T2 sequence (P25103 whole entry): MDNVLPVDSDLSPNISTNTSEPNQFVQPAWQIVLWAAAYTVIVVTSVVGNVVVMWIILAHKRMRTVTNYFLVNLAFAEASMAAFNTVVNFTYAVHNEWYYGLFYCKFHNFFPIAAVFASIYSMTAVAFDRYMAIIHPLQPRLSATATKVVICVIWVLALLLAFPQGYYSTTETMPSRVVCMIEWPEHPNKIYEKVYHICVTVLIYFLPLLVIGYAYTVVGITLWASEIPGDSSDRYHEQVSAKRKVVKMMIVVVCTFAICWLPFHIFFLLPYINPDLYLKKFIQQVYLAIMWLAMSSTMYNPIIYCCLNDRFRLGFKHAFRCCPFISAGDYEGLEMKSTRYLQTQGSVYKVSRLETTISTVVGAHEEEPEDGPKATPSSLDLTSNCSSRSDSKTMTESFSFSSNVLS
T1 sequence (P08684 whole entry): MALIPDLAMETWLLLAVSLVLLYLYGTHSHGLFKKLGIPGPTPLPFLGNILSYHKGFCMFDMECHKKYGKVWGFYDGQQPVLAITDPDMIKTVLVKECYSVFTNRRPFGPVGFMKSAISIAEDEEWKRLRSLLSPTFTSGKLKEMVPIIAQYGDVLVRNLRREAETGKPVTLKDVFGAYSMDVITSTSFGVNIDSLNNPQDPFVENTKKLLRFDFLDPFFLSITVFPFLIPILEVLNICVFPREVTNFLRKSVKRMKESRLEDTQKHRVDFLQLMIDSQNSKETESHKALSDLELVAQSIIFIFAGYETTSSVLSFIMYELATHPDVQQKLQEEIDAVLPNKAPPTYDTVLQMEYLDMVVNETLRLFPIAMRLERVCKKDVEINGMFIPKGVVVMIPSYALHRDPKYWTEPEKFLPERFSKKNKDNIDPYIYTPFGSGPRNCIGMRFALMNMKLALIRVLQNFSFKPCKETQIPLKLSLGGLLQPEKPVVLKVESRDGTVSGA

| SMILES | Preincubation (30 min) (%) (enzyme activities relative to group without test compound) (human CYP3A4) | remaining activity at 1 µM (human NK1 receptor [1]) [%] | IC50 (human NK1 receptor [2]) [nM] |
| --- | --- | --- | --- |
| C[C@@H](O[C@H]1OCCN(Cc2n[nH]c(=O)[nH]2)[C@H]1c1ccc(F)cc1)c1cc(C(F)(F)F)cc(C(F)(F)F)c1 [Aprepitant, aprepitant, reference compound] | 1.3 | – | – |
| Cc1cc(F)ccc1[C@H]1CN(C2CCC(CC(=O)O)CC2)CCN1C(=O)N(C)[C@H](C)c1cc(C(F)(F)F)cc(C(F)(F)F)c1 (stereo partly drawn) [Example 1, {4-[(S)-4-{[(R)-1-(3,5-Bistrifluoromethylphenyl)ethyl]methylcarbamoyl}-3-(4-fluoro-2-methylphenyl)piperazin-1-yl]cyclohexyl}acetic acid] | – | 15 | 2.24 |
| Cc1cc(F)ccc1[C@H]1CN(C(=O)[C@H]2CC[C@@H](CC(=O)O)CC2)CCN1C(=O)N(C)[C@H](C)c1cc(C(F)(F)F)cc(C(F)(F)F)c1 [Example 2, cis-{4-[(S)-4-{[(R)-1-(3,5-Bistrifluoromethylphenyl)ethyl]methylcarbamoyl}-3-(4-fluoro-2-methylphenyl)piperazine-1-carbonyl]cyclohexyl}acetic acid] | – | 25 | 1.38 |
| Cc1cc(F)ccc1[C@H]1CN(C(=O)[C@H]2CC[C@H](CC(=O)O)CC2)CCN1C(=O)N(C)[C@H](C)c1cc(C(F)(F)F)cc(C(F)(F)F)c1 [Example 3, trans-{4-[(S)-4-{[(R)-1-(3,5-Bistrifluoromethylphenyl)ethyl]methylcarbamoyl}-3-(4-fluoro-2-methylphenyl)piperazine-1-carbonyl]cyclohexyl}acetic acid] | – | 50 | 1.41 |
| Cc1cc(F)ccc1[C@H]1CN(C2CCC(C(=O)O)CC2)CCN1C(=O)N(C)[C@H](C)c1cc(C(F)(F)F)cc(C(F)(F)F)c1 (stereo partly drawn) [Example 6, 4-[(S)-4-{[(R)-1-(3,5-Bistrifluoromethylphenyl)ethyl]methylcarbamoyl}-3-(4-fluoro-2-methylphenyl)piperazin-1-yl]cyclohexanecarboxylic acid] | – | 14 | 1.7 |
| Cc1cc(F)ccc1[C@H]1CN(C[C@H]2CC[C@@H](C(=O)O)CC2)CCN1C(=O)N(C)[C@H](C)c1cc(C(F)(F)F)cc(C(F)(F)F)c1 [Example 7, cis-4-[(S)-4-{[(R)-1-(3,5-Bistrifluoromethylphenyl)ethyl]methylcarbamoyl}-3-(4-fluoro-2-methylphenyl)piperazin-1-ylmethyl]cyclohexanecarboxylic acid] | – | 6.6 | 2.04 |
| Cc1cc(F)ccc1[C@H]1CN(C[C@H]2CC[C@H](C(=O)O)CC2)CCN1C(=O)N(C)[C@H](C)c1cc(C(F)(F)F)cc(C(F)(F)F)c1 [Example 8, trans-4-[(S)-4-{[(R)-1-(3,5-Bistrifluoromethylphenyl)ethyl]methylcarbamoyl}-3-(4-fluoro-2-methylphenyl)piperazin-1-ylmethyl]cyclohexanecarboxylic acid] | – | 14 | 1.86 |
| Cc1cc(F)ccc1[C@H]1CN(Cc2ccc(CC(=O)O)cc2)CCN1C(=O)N(C)[C@H](C)c1cc(C(F)(F)F)cc(C(F)(F)F)c1 [Example 9, {4-[(S)-4-{[(R)-1-(3,5-Bistrifluoromethylphenyl)ethyl]methylcarbamoyl}-3-(4-fluoro-2-methylphenyl)piperazin-1-ylmethyl]phenyl}acetic acid] | – | 38 | 1.55 |
| Cc1cc(F)ccc1[C@H]1CN(C(=O)N2CCC(CC(=O)O)CC2)CCN1C(=O)N(C)[C@H](C)c1cc(C(F)(F)F)cc(C(F)(F)F)c1 [Example 10, {1-[(S)-4-{[(R)-1-(3,5-Bistrifluoromethylphenyl)ethyl]methylcarbamoyl}-3-(4-fluoro-2-methylphenyl)piperazine-1-carbonyl]piperidin-4-yl}acetic acid] | – | 30 | 1.17 |
| Cc1cc(F)ccc1[C@H]1CN(CC23CC(C(=O)O)(C2)C3)CCN1C(=O)N(C)[C@H](C)c1cc(C(F)(F)F)cc(C(F)(F)F)c1 [Example 11, 3-[(S)-4-{[(R)-1-(3,5-Bistrifluoromethylphenyl)ethyl]methylcarbamoyl}-3-(4-fluoro-2-methylphenyl)piperazin-1-ylmethyl]bicyclo[1.1.1]pentane-1-carboxylic acid] | – | 24 | 1.91 |
| Cc1cc(F)ccc1[C@H]1CN(C2CCC(CC(=O)O)CC2)CC[C@@H]1C(=O)N(C)[C@@H](C)c1cc(C(F)(F)F)cc(C(F)(F)F)c1 (stereo partly drawn) [Example 12, {4-[(3 S,4S)-4-{[(S)-1-(3,5-Bistrifluoromethylphenyl)ethyl]methylcarbamoyl}-3-(4-fluoro-2-methylphenyl)piperidin-1-yl]cyclohexyl}lacetic acid] | – | 4.9 | 0.282 |
